Test results: the supplement of paper PMC10307832

Assays:
Assay in all cases: relative viability (nuclei count vs DMSO), 5 days (fraction); higher = more cells survive
NCI-H322M = test system: NCI-H322M
Procedure, shortened: (§1)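 Cells from lung cancer lines were seeded into 1536-well plates and, one day later, dosed by pin tool. Treatments were either a single drug or a fixed dose of an anchor drug with five library-drug doses (not always all listed) in √10 steps. After 5 days, nuclei were stained in a one-step fixation (final 0.05% Triton X-100, 1% formaldehyde, 1 ug/ml Hoechst) and counted on 4× images, and relative viability is the treated-to-vehicle nuclei ratio, as the median of duplicate plates.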

NCI-H1563 = test system: NCI-H1563
Procedure, shortened: as §1

NCI-H522 = test system: NCI-H522
Procedure, shortened: as §1

CAL-12T = test system: CAL-12T
Procedure, shortened: as §1

NCI-H838 = test system: NCI-H838
Procedure, shortened: as §1

NCI-H727 = test system: NCI-H727
Procedure, shortened: as §1

HCC-15 = test system: HCC-15
Procedure, shortened: as §1

COR-L 105 = test system: COR-L 105
Procedure, shortened: as §1

BEN = test system: BEN
Procedure, shortened: as §1

SW 900 = test system: SW 900
Procedure, shortened: as §1

LU99A = test system: LU99A
Procedure, shortened: as §1

PC-3 [JPC-3] = test system: PC-3 [JPC-3]
Procedure, shortened: as §1

NCI-H1651 = test system: NCI-H1651
Procedure, shortened: as §1

NCI-H460 = test system: NCI-H460
Procedure, shortened: as §1

NCI-H2023 = test system: NCI-H2023
Procedure, shortened: as §1

LK-2 = test system: LK-2
Procedure, shortened: as §1

HCC-44 = test system: HCC-44
Procedure, shortened: as §1

NCI-H358 = test system: NCI-H358
Procedure, shortened: as §1

201T = test system: 201T
Procedure, shortened: as §1

ABC-1 = test system: ABC-1
Procedure, shortened: as §1

EMC-BAC-2 = test system: EMC-BAC-2
Procedure, shortened: as §1

EKVX = test system: EKVX
Procedure, shortened: as §1

NCI-H520 = test system: NCI-H520
Procedure, shortened: as §1

`CN1CCN(CCOc2cc(OC3CCOCC3)c3c(Nc4c(Cl)ccc5c4OCO5)ncnc3c2)CC1` [Saracatinib] + COc1cccc2cc(-c3nc([C@H]4CC[C@H](C(=O)O)CC4)n4ncnc(N)c34)[nH]c12 [OSI-027] (partner 0.5 µM) showed a relative viability (NCI-H322M; first compound 0.02 µM) of 0.56, a relative viability (NCI-H322M; first compound 0.2 µM) of 0.499 and a relative viability (NCI-H322M; first compound 0.6325 µM) of 0.449. It also gave a relative viability (NCI-H322M; first compound 2 µM) of 0.275, a relative viability (NCI-H1563; first compound 0.02 µM) of 0.703 and a relative viability (NCI-H1563; first compound 0.2 µM) of 0.663. It also gave a relative viability (NCI-H1563; first compound 0.6325 µM) of 0.645, a relative viability (NCI-H1563; first compound 2 µM) of 0.711 and a relative viability (NCI-H522; first compound 0.02 µM) of 0.703. For the same molecule, the relative viability (NCI-H522; first compound 0.6325 µM) was 0.692, the relative viability (NCI-H522; first compound 2 µM) was 0.683 and the relative viability (CAL-12T; first compound 0.02 µM) was 0.734. For the same molecule, the relative viability (CAL-12T; first compound 0.2 µM) was 0.677, the relative viability (CAL-12T; first compound 0.6325 µM) was 1.08 and the relative viability (CAL-12T; first compound 2 µM) was 0.57. For the same molecule, the relative viability (NCI-H838; first compound 0.02 µM) was 0.348, the relative viability (NCI-H838; first compound 0.2 µM) was 0.302 and the relative viability (NCI-H838; first compound 0.6325 µM) was 0.401. It also gave a relative viability (NCI-H838; first compound 2 µM) of 0.235, a relative viability (NCI-H727; first compound 0.02 µM) of 0.496 and a relative viability (NCI-H727; first compound 0.2 µM) of 0.463. The relative viability (NCI-H727; first compound 0.6325 µM) was 0.529, the relative viability (NCI-H727; first compound 2 µM) was 0.485 and the relative viability (HCC-15; first compound 0.02 µM) was 0.806. The relative viability (HCC-15; first compound 0.2 µM) was 0.586, the relative viability (HCC-15; first compound 0.6325 µM) was 0.708 and the relative viability (HCC-15; first compound 2 µM) was 0.605. For the same molecule, the relative viability (COR-L 105; first compound 0.02 µM) was 0.837, the relative viability (COR-L 105; first compound 0.2 µM) was 0.628 and the relative viability (COR-L 105; first compound 0.6325 µM) was 0.566. For the same molecule, the relative viability (COR-L 105; first compound 2 µM) was 0.221, the relative viability (BEN; first compound 0.02 µM) was 0.284 and the relative viability (BEN; first compound 0.6325 µM) was 0.309. The relative viability (BEN; first compound 2 µM) was 0.261, the relative viability (SW 900; first compound 0.02 µM) was 0.616 and the relative viability (SW 900; first compound 0.2 µM) was 0.559. For the same molecule, the relative viability (SW 900; first compound 0.6325 µM) was 0.575, the relative viability (SW 900; first compound 2 µM) was 0.443 and the relative viability (LU99A; first compound 0.02 µM) was 0.317. The relative viability (LU99A; first compound 0.2 µM) was 0.283, the relative viability (LU99A; first compound 0.6325 µM) was 0.303 and the relative viability (LU99A; first compound 2 µM) was 0.277. The relative viability (PC-3 [JPC-3]; first compound 0.02 µM) was 0.793, the relative viability (PC-3 [JPC-3]; first compound 0.2 µM) was 0.718 and the relative viability (PC-3 [JPC-3]; first compound 0.6325 µM) was 0.61. For the same molecule, the relative viability (PC-3 [JPC-3]; first compound 2 µM) was 0.436, the relative viability (NCI-H1651; first compound 0.02 µM) was 0.694 and the relative viability (NCI-H1651; first compound 0.2 µM) was 0.657. For the same molecule, the relative viability (NCI-H1651; first compound 0.6325 µM) was 0.81, the relative viability (NCI-H1651; first compound 2 µM) was 0.485 and the relative viability (NCI-H460; first compound 0.02 µM) was 0.656. The relative viability (NCI-H460; first compound 0.2 µM) was 0.394, the relative viability (NCI-H460; first compound 0.6325 µM) was 0.623 and the relative viability (NCI-H460; first compound 2 µM) was 0.376. It also gave a relative viability (NCI-H2023; first compound 0.02 µM) of 0.473, a relative viability (NCI-H2023; first compound 0.2 µM) of 0.394 and a relative viability (NCI-H2023; first compound 0.6325 µM) of 0.316. For the same molecule, the relative viability (NCI-H2023; first compound 2 µM) was 0.273, the relative viability (LK-2; first compound 0.02 µM) was 0.218 and the relative viability (LK-2; first compound 0.2 µM) was 0.165. It also gave a relative viability (LK-2; first compound 0.6325 µM) of 0.161, a relative viability (LK-2; first compound 2 µM) of 0.151 and a relative viability (HCC-44; first compound 0.02 µM) of 0.483. It also gave a relative viability (HCC-44; first compound 0.2 µM) of 0.522, a relative viability (HCC-44; first compound 0.6325 µM) of 0.592 and a relative viability (HCC-44; first compound 2 µM) of 0.543. It also gave a relative viability (NCI-H358; first compound 0.02 µM) of 0.707, a relative viability (NCI-H358; first compound 0.2 µM) of 0.391 and a relative viability (NCI-H358; first compound 0.6325 µM) of 0.466. The relative viability (NCI-H358; first compound 2 µM) was 0.289, the relative viability (201T; first compound 0.02 µM) was 0.725 and the relative viability (201T; first compound 0.2 µM) was 0.53. It also gave a relative viability (201T; first compound 0.6325 µM) of 0.752, a relative viability (201T; first compound 2 µM) of 0.445 and a relative viability (ABC-1; first compound 0.02 µM) of 0.428. It also gave a relative viability (ABC-1; first compound 0.2 µM) of 0.65, a relative viability (ABC-1; first compound 0.6325 µM) of 0.547 and a relative viability (ABC-1; first compound 2 µM) of 0.543. The relative viability (EMC-BAC-2; first compound 0.02 µM) was 0.412, the relative viability (EMC-BAC-2; first compound 0.2 µM) was 0.322 and the relative viability (EMC-BAC-2; first compound 0.6325 µM) was 0.355. For the same molecule, the relative viability (EMC-BAC-2; first compound 2 µM) was 0.297, the relative viability (EKVX; first compound 0.02 µM) was 0.679 and the relative viability (EKVX; first compound 0.6325 µM) was 0.746. It also gave a relative viability (EKVX; first compound 2 µM) of 0.456, a relative viability (NCI-H520; first compound 0.02 µM) of 0.191 and a relative viability (NCI-H520; first compound 0.6325 µM) of 0.262. For the same molecule, the relative viability (NCI-H520; first compound 2 µM) was 0.176.
